{"source": "paper PMC9138505", "about": "“Small Molecule 20S Proteasome Enhancer Regulates MYC Protein Stability and Exhibits Antitumor Activity in Multiple Myeloma” (Biomedicines, 2022)", "system": "RPMI-8226 cells", "assay": "Gene expression profiling, NanoString nCounter PanCancer Pathways Panel, ROSALIND analysis", "type": "cell-based, human", "settings": "RPMI-8226, TCH-165 samples 1-3", "description": "RPMI-8226 cells were treated with vehicle or TCH-165 (10 μM) for 4 h. Total RNA was obtained using the mirVana miRNA Isolation Kit, with phenol (Thermofisher Scientific; AM1560; Waltham, MA, USA). Total RNA was quantified by Qubit (Thermofisher Scientific; Q32855; Waltham, MA, USA). and gene expression was evaluated against the nCounter® PanCancer Pathways Panel^TM according to the standard NanoString protocol.\nData were analyzed by ROSALIND® [36] with a hyperscale architecture developed by ROSALIND, Inc. (San Diego, CA, USA). Normalization, fold changes and p-values were calculated using criteria provided by NanoString. ROSALIND follows the nCounter® Advanced Analysis protocol of dividing counts within a lane by the geometric mean of the normalizer probes from the same lane. Housekeeping probes to be used for normalization are selected based on the geNorm algorithm, as implemented in the NormqPCR R library. Fold changes and p-values are calculated using the fast method as described in the nCounter Advanced Analysis 2.0 User Manual. The p-value adjustment is performed using the Benjamini–Hochberg method of estimating false discovery rates (FDR). Clustering of genes for the final heatmap of differentially expressed genes was done using the PAM (Partitioning Around Medoids) method using the fpc R library. Hypergeometric distribution was used to analyze the enrichment of pathways, gene ontology, domain structure and other ontologies. The topGO R library was used to determine local similarities and dependencies between GO terms in order to perform Elim pruning correction. Several database sources were referenced for enrichment analysis, including Interpro [40], NCBI [41], MSigDB [42, 43], REACTOME [44], WikiPathways. Enrichment was calculated relative to a set of background genes relevant to the experiment.", "note": "Where “and” joins values, the source holds several entries; their conditions need not be identical. Identical values can stand only once.", "data": [{"smiles": "CCOC(=O)[C@]1(c2ccccc2)N=C(c2ccc(OC)cc2)N(Cc2ccccc2)[C@@H]1c1ccc(NCc2ccccc2)cc1", "note": "[TCH-165]", "values": [{"measurement": "PDGFA normalized gene expression", "value": "6.283 and 6.012 and 6.0068"}, {"measurement": "PDGFB normalized gene expression", "value": "4.649 and 4.855 and 4.437"}, {"measurement": "PDGFRA normalized gene expression", "value": "4.401 and 4.3768 and 3.876"}, {"measurement": "PDGFRB normalized gene expression", "value": "4.86 and 4.614 and 4.483"}, {"measurement": "PGF normalized gene expression", "value": "5.308 and 4.817 and 4.238"}, {"measurement": "PIK3CA normalized gene expression", "value": "10.0553 and 10.0309 and 10.0578"}, {"measurement": "PIK3CB normalized gene expression", "value": "6.955 and 6.836 and 6.778"}, {"measurement": "PIK3CD normalized gene expression", "value": "5.445 and 5.636 and 4.975"}, {"measurement": "PIK3CG normalized gene expression", "value": "8.477 and 8.424 and 8.357"}, {"measurement": "PIK3R1 normalized gene expression", "value": "7.74 and 7.729 and 7.668"}, {"measurement": "PIK3R3 normalized gene expression", "value": "10.4707 and 10.3784 and 10.3886"}, {"measurement": "PIK3R5 normalized gene expression", "value": "8.581 and 8.361 and 8.483"}, {"measurement": "PIM1 normalized gene expression", "value": "9.677 and 9.621 and 9.503"}, {"measurement": "PITX2 normalized gene expression", "value": "3.723 and 3.817 and 3.39"}, {"measurement": "PKMYT1 normalized gene expression", "value": "9.448 and 9.494 and 9.482"}, {"measurement": "PLA1A normalized gene expression", "value": "4.571 and 4.7789 and 4.5707"}, {"measurement": "PLA2G2A normalized gene expression", "value": "5.723 and 5.0613 and 5.549"}, {"measurement": "PLA2G3 normalized gene expression", "value": "5.955 and 5.7789 and 5.549"}, {"measurement": "PLA2G4A normalized gene expression", "value": "9.821 and 9.8479 and 9.947"}, {"measurement": "PLA2G4C normalized gene expression", "value": "3.986 and 4.324 and 4.0682"}, {"measurement": "PLA2G5 normalized gene expression", "value": "4.208 and 4.855 and 5.0068"}, {"measurement": "PLA2G10 normalized gene expression", "value": "4.793 and 4.569 and 4.9095"}, {"measurement": "PLAT normalized gene expression", "value": "5.101 and 4.855 and 4.805"}, {"measurement": "PLAU normalized gene expression", "value": "5.758 and 5.452 and 5.461"}, {"measurement": "PLCB1 normalized gene expression", "value": "7.331 and 7.169 and 7.1906"}, {"measurement": "PLCB4 normalized gene expression", "value": "8.221 and 8.1619 and 8.141"}, {"measurement": "PLCE1 normalized gene expression", "value": "3.571 and 3.962 and 3.291"}, {"measurement": "PLCG2 normalized gene expression", "value": "7.802 and 7.657 and 7.688"}, {"measurement": "PLD1 normalized gene expression", "value": "4.723 and 4.524 and 4.0068"}, {"measurement": "PML normalized gene expression", "value": "9.305 and 9.103 and 9.111"}, {"measurement": "POLB normalized gene expression", "value": "8.277 and 8.166 and 8.094"}, {"measurement": "POLD1 normalized gene expression", "value": "6.955 and 6.97 and 7.225"}, {"measurement": "POLE2 normalized gene expression", "value": "7.876 and 7.784 and 7.712"}, {"measurement": "POLR2D normalized gene expression", "value": "10.3534 and 10.1749 and 10.2456"}, {"measurement": "POLR2H normalized gene expression", "value": "9.625 and 9.653 and 9.593"}, {"measurement": "POLR2J normalized gene expression", "value": "8.023 and 8.1988 and 7.922"}, {"measurement": "PPARG normalized gene expression", "value": "5.308 and 4.093 and 4.841"}, {"measurement": "PPARGC1A normalized gene expression", "value": "5.156 and 4.855 and 4.5707"}, {"measurement": "PPP2CB normalized gene expression", "value": "9.355 and 9.581 and 9.539"}, {"measurement": "PPP2R1A normalized gene expression", "value": "10.9153 and 10.8543 and 10.8588"}, {"measurement": "PPP2R2B normalized gene expression", "value": "5.208 and 3.891 and 3.876"}, {"measurement": "PPP2R2C normalized gene expression", "value": "4.401 and 4.154 and 4.653"}, {"measurement": "PPP3CA normalized gene expression", "value": "8.9359 and 8.866 and 8.858"}, {"measurement": "PPP3CB normalized gene expression", "value": "6.793 and 6.5 and 6.673"}, {"measurement": "PPP3CC normalized gene expression", "value": "7.784 and 7.44 and 7.5547"}, {"measurement": "PPP3R1 normalized gene expression", "value": "12.1844 and 12.0743 and 12.0585"}, {"measurement": "PRDM1 normalized gene expression", "value": "9.955 and 9.965 and 9.796"}, {"measurement": "PRKAA2 normalized gene expression", "value": "5.445 and 4.927 and 5.238"}, {"measurement": "PRKACA normalized gene expression", "value": "10.3765 and 10.3832 and 10.3727"}, {"measurement": "PRKACB normalized gene expression", "value": "9.149 and 8.936 and 8.955"}, {"measurement": "PRKACG normalized gene expression", "value": "5.955 and 4.996 and 4.975"}, {"measurement": "PRKAR1B normalized gene expression", "value": "7.319 and 7.093 and 7.231"}, {"measurement": "PRKAR2A normalized gene expression", "value": "10.8995 and 10.8368 and 10.7359"}, {"measurement": "PRKAR2B normalized gene expression", "value": "4.924 and 5.5 and 5.291"}, {"measurement": "PRKCA normalized gene expression", "value": "5.61 and 5.739 and 5.858"}, {"measurement": "PRKCB normalized gene expression", "value": "5.101 and 5.5 and 5.1271"}, {"measurement": "PRKCG normalized gene expression", "value": "3.208 and 3.154 and 2.805"}, {"measurement": "PRKDC normalized gene expression", "value": "10.6509 and 10.6549 and 10.5707"}, {"measurement": "PRKX normalized gene expression", "value": "6.924 and 6.699 and 6.769"}, {"measurement": "PRL normalized gene expression", "value": "5.156 and 4.7789 and 4.483"}, {"measurement": "PRLR normalized gene expression", "value": "4.401 and 4.324 and 4.483"}, {"measurement": "PROM1 normalized gene expression", "value": "5.488 and 4.817 and 5.1271"}, {"measurement": "PTCH1 normalized gene expression", "value": "6.423 and 6.1393 and 6.303"}, {"measurement": "PTEN normalized gene expression", "value": "10.0245 and 10.0523 and 10.0068"}, {"measurement": "PTPN11 normalized gene expression", "value": "10.4091 and 10.3872 and 10.2825"}, {"measurement": "PTPRR normalized gene expression", "value": "5.156 and 5.27 and 4.876"}, {"measurement": "PTTG2 normalized gene expression", "value": "10.7067 and 10.7173 and 10.7103"}, {"measurement": "RAC1 normalized gene expression", "value": "10.809 and 10.6987 and 10.6841"}, {"measurement": "RAC2 normalized gene expression", "value": "9.175 and 9.2187 and 9.226"}, {"measurement": "RAC3 normalized gene expression", "value": "7.412 and 7.085 and 7.42"}, {"measurement": "RAD21 normalized gene expression", "value": "12.3086 and 12.2658 and 12.2586"}, {"measurement": "RAD50 normalized gene expression", "value": "8.5605 and 8.589 and 8.653"}, {"measurement": "RAD51 normalized gene expression", "value": "8.142 and 8.041 and 8.102"}, {"measurement": "RAD52 normalized gene expression", "value": "7.767 and 7.625 and 7.698"}, {"measurement": "RAF1 normalized gene expression", "value": "10.0005 and 9.906 and 9.965"}, {"measurement": "RASA4 normalized gene expression", "value": "8.175 and 8.284 (2×)"}, {"measurement": "RASAL1 normalized gene expression", "value": "7.884 and 7.864 and 8.034"}, {"measurement": "RASGRF1 normalized gene expression", "value": "5.355 and 5.27 and 5.1271"}, {"measurement": "RASGRF2 normalized gene expression", "value": "4.401 and 4.154 and 4.39"}, {"measurement": "RASGRP1 normalized gene expression", "value": "3.571 and 3.27 and 2.805"}, {"measurement": "RASGRP2 normalized gene expression", "value": "5.355 and 4.7789 and 5.184"}, {"measurement": "RB1 normalized gene expression", "value": "10.4258 and 10.2516 and 10.3605"}, {"measurement": "RBX1 normalized gene expression", "value": "11.212 and 11.2858 and 11.2821"}, {"measurement": "RELA normalized gene expression", "value": "9.023 and 9.033 and 8.932"}, {"measurement": "RELN normalized gene expression", "value": "3.208 and 3.154 and 2.653"}, {"measurement": "RET normalized gene expression", "value": "4.488 and 3.154 and 4.1271"}, {"measurement": "RFC3 normalized gene expression", "value": "10.5818 and 10.4756 and 10.5331"}, {"measurement": "RFC4 normalized gene expression", "value": "10.5805 and 10.6642 and 10.6099"}, {"measurement": "RHOA normalized gene expression", "value": "10.324 and 10.1814 and 10.1759"}, {"measurement": "RIN1 normalized gene expression", "value": "5.308 and 5.324 and 5.211"}, {"measurement": "RNF43 normalized gene expression", "value": "5.044 and 4.569 and 4.528"}]}]}
